Measured values: US20260176300A1, “N-ARYLPYRAZOLE NOD2 AGONISTS AS PROMOTERS OF IMMUNE CHECKPOINT INHIBITOR THERAPY” (THE SCRIPPS RESEARCH INSTITUTE, priority 2022, published 2026)

Target: T1, NOD2 (Homo sapiens, UniProt Q9HC29)
T1 construct: host or cells: HEK-293T-derived HEK-Blue NF-kB/SEAP reporter cells
Assay: NOD2-HEK-Blue NF-κB reporter cell activation assay (NOD2-expressing HEK-293T cells)
Type: cell-based
Settings: Table 1
Description: FIG. 1(A-F). Virtual screening for small molecule NOD2 agonists. A, Docked structure of muramyl dipeptide (MDP) in the leucine-rich repeat (LRR) domain of rabbit NOD2 (pdb 5IRM). […] B, Results of virtual docking approach with reported chemical structures related to MDP. C, Workflow of virtual screening in which a library was generated using carboxylic acids appended to the L-Val-D-Glu dipeptide and then docked to the NOD2 LRR domain. D, Desmuramyl MDP (dMDP) structures resulting from the virtual screen that were synthesized for further screening. Chemicals shown as a pure enantiomer were synthesized as a racemic mixture. E, Activation of NOD2-expressing HEK-293T cells treated for 16 h with 10 µM of the indicated compound using a colorimetric assay. F, Dose-dependent activation of NOD2-expressing HEK-293T cells using the indicated compounds. Numbers in parentheses represent calculated negative log of the half maximal effective concentration (pEC50) values. NOD activation assays were analyzed using a one-way ANOVA with Dunnett's multiple comparisons test compared to the DMSO control. pEC50 values were derived by a three-parameter dose-response nonlinear regression. ****P<0.0001.
FIG. 2(A-G). Structure-activity relationship studies of 3,5-dimethyl-N-arylpyrazole NOD2 agonists. A, Structures of 3,5-dimethyl-N-arylpyrazole structures synthesized for SAR studies. B-F, Dose-dependent activation of NOD2-expressing HEK-293T cells using the indicated compounds grouped by similar structural perturbations. Numbers in parentheses represent calculated pEC50 values. G, Graph of calculated pEC50 values vs. calculated partition coefficient (clogP). Dotted lines show equivalent lipophilic ligand efficiency (LLE) values. Red arrow indicates optimization of the TT007 scaffold to TT030. pEC50 values were derived by a three-parameter dose-response nonlinear regression.
Cell culture. The following cell lines were used and sourced as follows: HEK-Blue NOD2 (InvivoGen, hkb-hnod2), HEK-Blue NOD1 (InvivoGen, hkb-nod1), HEK-Blue Null2 (hkb-null2), and B16-F10 (ATCC CRL-6475). All cell lines were cultured at 37° C. in 5% CO2 in DMEM (ThermoFisher, 11995065) supplemented with 10% fetal bovine serum (FBS), 100 U mL-1 penicillin, and 100 μg mL-1 streptomycin. Cells were maintained at no greater than 70% confluency and subcultured using TrypLE Express. Cell lines were routinely cultured without antibiotics to ensure no bacterial infection and tested for mycoplasma using a Universal Mycoplasma Detection Kit (ATCC 30-1012K). Primary human peripheral mononuclear blood cells (PBMCs) were cultured at 37° C. in 5% CO2 in RPMI 1640 (ThermoFisher, 61870143) supplemented with 10% FBS. All experimental work using human samples was reviewed and approved by the Scripps Research Institutional Review Board (Protocol IRB-21-7816NOD2).
Reporter cell line activation assay. Approximately 24 h before the assay, culture medium for each of the HEK-Blue reporter cell lines was replaced with a 1:1 mixture of DMEM supplemented with 10% FBS and OptiMEM. On the day of the assay, single cell suspensions (150,000 cells/mL) were produced in HEK-Blue detection medium (InvivoGen, hb-det2). Cells were aliquoted at 200 μL per well of a 96-well plate containing 0.2 μL of a 1000× stock of each test compound in DMSO. Cells were then incubated at 37° C. in 5% CO2 for 8-10 h. To measure activity, wells were then gently pipetted up and down to mix the conditioned medium, and absorbance from the colorimetric product of the secreted alkaline phosphatase was measured at 630 nm. In some assays, cells were stimulated for 16 h with compounds as described above in complete DMEM. Then, 20 μL of the conditioned medium was mixed with 180 μL QUANTI-Blue solution (InvivoGen, rep-qbs) and incubated for 2-4 h at 37° C. Activity was then measured by absorbance as described above.

T1 sequence (Q9HC29 whole entry): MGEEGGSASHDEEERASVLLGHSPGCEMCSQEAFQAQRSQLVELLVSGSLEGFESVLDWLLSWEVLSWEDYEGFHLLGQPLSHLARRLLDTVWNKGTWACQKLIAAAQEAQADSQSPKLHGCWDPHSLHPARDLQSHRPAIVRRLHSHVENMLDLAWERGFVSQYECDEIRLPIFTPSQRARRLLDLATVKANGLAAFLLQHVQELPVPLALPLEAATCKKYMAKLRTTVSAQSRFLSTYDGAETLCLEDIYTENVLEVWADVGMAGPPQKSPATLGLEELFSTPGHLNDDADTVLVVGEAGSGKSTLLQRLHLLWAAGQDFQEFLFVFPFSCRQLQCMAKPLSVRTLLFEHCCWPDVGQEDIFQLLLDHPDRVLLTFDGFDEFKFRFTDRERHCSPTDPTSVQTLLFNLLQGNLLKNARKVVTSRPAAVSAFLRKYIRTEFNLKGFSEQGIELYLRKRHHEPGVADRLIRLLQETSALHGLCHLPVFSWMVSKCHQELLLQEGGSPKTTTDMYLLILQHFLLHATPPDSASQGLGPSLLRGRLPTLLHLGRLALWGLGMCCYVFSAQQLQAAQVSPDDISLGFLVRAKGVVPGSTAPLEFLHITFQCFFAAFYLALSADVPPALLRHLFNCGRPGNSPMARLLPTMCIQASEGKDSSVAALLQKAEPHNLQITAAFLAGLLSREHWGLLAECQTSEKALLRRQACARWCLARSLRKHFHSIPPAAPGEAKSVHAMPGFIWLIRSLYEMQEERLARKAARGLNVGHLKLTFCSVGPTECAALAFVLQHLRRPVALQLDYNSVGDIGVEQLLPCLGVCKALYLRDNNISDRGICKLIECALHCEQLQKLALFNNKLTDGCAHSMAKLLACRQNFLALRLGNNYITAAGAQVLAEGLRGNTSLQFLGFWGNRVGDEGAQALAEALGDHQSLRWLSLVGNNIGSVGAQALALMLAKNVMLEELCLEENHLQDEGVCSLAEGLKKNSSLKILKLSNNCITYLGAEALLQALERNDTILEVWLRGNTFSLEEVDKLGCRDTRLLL

| NOD2 activation, result in words in the pEC50 column | Structure (SMILES) |
| --- | --- |
| Active | CCOC(=O)CC[C@@H](NC(=O)[C@@H](NC(=O)/C=C/c1ccc(F)cc1)C(C)C)C(=O)OCC [TT002, Diethyl ((E)-3-(4-fluorophenyl)acryloyl)-L-valyl-D-glutamate] |

Same assay, conditions: calculated, three-parameter dose-response nonlinear regression; read-out: pEC50 (μM), dose-dependent activation of NOD2-expressing HEK-293T cells (converted)

| EC50 | Structure (SMILES) |
| --- | --- |
| 31.6 µM | CCOC(=O)CC[C@@H](NC(=O)[C@@H](NC(=O)c1cnn(-c2ccccc2O)c1C)C(C)C)C(=O)OCC [TT014, Diethyl (1-(2-hydroxyphenyl)-5-methyl-1H-pyrazole-4-carbonyl)-L-valyl-D-glutamate] |
| 3.16 µM | CCOC(=O)CC[C@@H](NC(=O)[C@@H](NC(=O)c1c(C)nn(-c2ccncc2)c1C)C(C)C)C(=O)OCC [TT031, Diethyl (3,5-dimethyl-1-(pyridin-4-yl)-1H-pyrazole-4-carbonyl)-L-valyl-D-glutamate] |
| 79.4 µM | CCOC(=O)CC[C@@H](NC(=O)[C@@H](NC(=O)c1cnn(-c2ccncc2)c1C)C(C)C)C(=O)OCC [TT016, Diethyl (5-methyl-1-(pyridin-4-yl)-1H-pyrazole-4-carbonyl)-L-valyl-D-glutamate] |
| 0.501 µM | CCOC(=O)CC[C@@H](NC(=O)[C@@H](NC(=O)c1c(C)nn(-c2ccc(N)nc2)c1C)C(C)C)C(=O)OCC [TT026, Diethyl (1-(6-aminopyridin-3-yl)-3,5-dimethyl-1H-pyrazole-4-carbonyl)-L-valyl-D-glutamate] |
| 31.6 µM | CCOC(=O)CC[C@@H](NC(=O)[C@@H](NC(=O)c1cnn(-c2ccc(F)cc2)c1C(C)C)C(C)C)C(=O)OCC [TT012, Diethyl (1-(4-fluorophenyl)-5-isopropyl-1H-pyrazole-4-carbonyl)-L-valyl-D-glutamate] |
| 1 µM | CCOC(=O)CC[C@@H](NC(=O)[C@@H](NC(=O)c1c(C)nn(-c2ccc(Cl)cc2)c1C)C(C)C)C(=O)OCC [TT024, Diethyl (1-(4-chlorophenyl)-3,5-dimethyl-1H-pyrazole-4-carbonyl)-L-valyl-D-glutamate] |
| 2.51 µM | CCOC(=O)CC[C@@H](NC(=O)[C@@H](NC(=O)c1c(C)nn(-c2cccnc2)c1C)C(C)C)C(=O)OCC [TT033, Diethyl (3,5-dimethyl-1-(pyridin-3-yl)-1H-pyrazole-4-carbonyl)-L-valyl-D-glutamate] |

More lines, now with the values behind:

| Structure (SMILES) | EC50 |
| --- | --- |
| CCOC(=O)CC[C@@H](NC(=O)[C@@H](NC(=O)c1cn(-c2ccc(C)cc2)nc1C)C(C)C)C(=O)OCC [TT013, Diethyl (3-methyl-1-(p-tolyl)-1H-pyrazole-4-carbonyl)-L-valyl-D-glutamate] | 10 µM |
| CCOC(=O)CC[C@@H](NC(=O)[C@@H](NC(=O)c1c(C)nn(-c2ccc(NC(=O)OC(C)(C)C)nc2)c1C)C(C)C)C(=O)OCC [TT027, Diethyl (1-(6-((tert-butoxycarbonyl)amino)pyridin-3-yl)-3,5-dimethyl-1H-pyrazole-4-carbonyl)-L-valyl-D-glutamate] | 0.158 µM |
| CCOC(=O)CC[C@@H](NC(=O)[C@@H](NC(=O)C(C)Cc1ccc(F)c(F)c1)C(C)C)C(=O)OCC (mixture of isomers) [TT005, Diethyl (3-(3,4-difluorophenyl)-2-methylpropanoyl)-L-valyl-D-glutamate] | 0.631 µM |
| CCOC(=O)CC[C@@H](NC(=O)[C@@H](NC(=O)C1(Cc2ccc(F)cc2)CCCC1)C(C)C)C(=O)OCC [TT003, Diethyl (1-(4-fluorobenzyl)cyclopentane-1-carbonyl)-L-valyl-D-glutamate] | 0.0501 µM |
| CCOC(=O)CC[C@@H](NC(=O)[C@@H](NC(=O)CNC(=O)/C=C/c1ccccc1)C(C)C)C(=O)OCC [CinGVE, Diethyl cinnamoylglycyl-L-valyl-D-glutamate, reference compound] | 1.26 µM |
| CCOC(=O)CC[C@@H](NC(=O)[C@@H](NC(=O)c1c(C)nn(-c2ccc3cc[nH]c3c2)c1C)C(C)C)C(=O)OCC [TT025, Diethyl (1-(1H-indol-6-yl)-3,5-dimethyl-1H-pyrazole-4-carbonyl)-L-valyl-D-glutamate] | 0.158 µM |

Same assay, conditions: relative to TT007; FIG. 2B, 2D, 2F, 6E

| Structure (SMILES) | Potency in structure-activity comparison |
| --- | --- |
| CCOC(=O)CC[C@@H](NC(=O)[C@@H](NC(=O)c1cnn(-c2ccc(F)cc2)c1C(C)C)C(C)C)C(=O)OCC [TT012, Diethyl (1-(4-fluorophenyl)-5-isopropyl-1H-pyrazole-4-carbonyl)-L-valyl-D-glutamate] | did not compensate the lack of the other substituent |
| CCOC(=O)CC[C@@H](NC(=O)[C@@H](NC(=O)c1c(C)nn(-c2ccc(Cl)cc2)c1C)C(C)C)C(=O)OCC [TT024, Diethyl (1-(4-chlorophenyl)-3,5-dimethyl-1H-pyrazole-4-carbonyl)-L-valyl-D-glutamate] | did not yield compounds with appreciable differences in potency |
